Tested on: vitiligo model in mice
Assay: Vitiligo model in mice (monobenzone)
Type: in vivo, C57BL/6 mice
Conditions: for IL-6 level in serum / TNF-α level in serum: 3% MDI-1228 gel
Method: • (1) Normal control group (5 mice, no treatment) • (2) Vitiligo model group (8 mice, no treatment) • (3) Vitiligo model+vehicle treatment group (8 mice, blank gel preparation, dose: 1.5 g/kg, twice daily) • (4) Vitiligo model+positive control drug treatment group (8 mice, 0.03% Tacrolimus, twice daily, 50 mg per dose) • (5) Vitiligo model+MDI-1228 (0.5%) compound gel preparation group (8 mice, 1 g/kg, twice daily) • (6) Vitiligo model+MDI-1228 (1%) compound gel preparation group (8 mice, 1.5 g/kg, twice daily) • (7) Vitiligo model+MDI-1228 (3%) compound gel preparation group (8 mice, 1.5 g/kg, twice daily) • Experimental environment: Temperature 20° C.-26° C., humidity 40%-70%
Modeling: Mice were acclimated for 7 days and subjected to vitiligo modeling by removing the black hair from a 2 cm^2 area on the back of the mice and applying the medication with a spatula using moderate force. The normal control group was administrated with Vaseline 50 mg once daily; and the model group was administrated with 40% monobenzone cream 50 mg once daily for 93 consecutive days.
Model validation: One mouse from the blank group and one from the model group were selected for model validation. The criteria for hair depigmentation assessment: Observe the skin & hair depigmentation daily and record the scores. Divide the depigmented area into the treated area and the non-treated area, with a total score of 5 for each area, making a total of 10 points for each mouse. The scoring criteria for mouse skin & hair depigmentation: 0 points for no depigmentation, 1 point for depigmentation area of 0-10%, 2 points for depigmentation area of 11%-25%, 3 points for depigmentation area of 26%-50%, 4 points for depigmentation area of 51%-75%, and 5 points for depigmentation area of 76%-100%.
After a 35-days treatment administration, a 15-day visual observation of the therapeutic efficacy for vitiligo in the treated mice began, with observations conducted every 3 days (for a total of 5 times) and photographs taken during each observation. The criteria for evaluating efficacy were as follows: The depigmented areas were divided into treated and non-treated areas, with a total score of 5 for each area, making a total of 10 points for each mouse. The scoring criteria for mouse skin & hair depigmentation are: 0 points for no depigmentation, 1 point for a depigmentation area of 0-10%, 2 points for a depigmentation area of 11%-25%, 3 points for a depigmentation area of 26%-50%. 4 points for a depigmentation area of 51%-75%, and 5 points for a depigmentation area of 76%-100%.
(1) HE Staining: The removed tissue was rinsed with running water for several hours, dehydrated through a series of ethanol solutions (70%, 80%, 90%), and then treated with a mixture of pure alcohol and xylene at a ratio of 1:1 for 15 minutes, followed by xylene I for 15 minutes and xylene II for 15 minutes (until transparent). The tissue was then placed in a mixture of xylene and paraffin at a ratio of 1:1 for 15 minutes, followed by immersion with paraffin I and paraffin II each for 50-60 minutes. The tissue was embedded in paraffin and sectioned. The sections were mounted, baked, dewaxed and hydrated in distilled water. The resulting sections were then stained in hematoxylin solution for 3 minutes, differentiated in a hydrochloric acid alcohol solution for 15 seconds, slightly washed, blued in a return blue solution for 15 seconds, rinsed with running water, stained with eosin for 3 minutes, rinsed with running water, dehydrated, cleared, and mounted for microscopic examination.
(2) ELISA detection: A double-antibody one-step sandwich Enzyme-linked Immunosorbent Assay (ELISA) kit was used. A capture antibody for the mouse target indicators was pre-coated onto microplate wells, to which samples, standards, and HRP-labeled detection antibodies were added sequentially, followed by incubation and thorough washing. […]

[1] = 0.5%, 1%, positive control drug, vs. model group

`CCc1cc(O)c(F)cc1-c1ccc2c(-c3nc4c([nH]3)CN(C(=O)N3CC[C@H](O)C3)C4)n[nH]c2c1` [MDI-1228, (S)-(2-(6-(2-ethyl-5-fluoro-4-hydroxyphenyl)-1H-indazol-3-yl)-4,6-dihydropyrrolo[3,4-d]imidazol-5-(1H)-yl)(3-hydroxylpyrrolidin-1-yl)ketone] was tested, and the “Skin & hair depigmentation area scores” value (0.5%, 1%, 3% MDI-1228 gel twice daily, vs. model group) was “a reduction in depigmentation area scores”, the “IL-6 level in serum” value [1] was “a reduced IL-6 level” and the “TNF-α level in serum” value [1] was “a reduced TNF-α level”. For the same molecule, the “Skin HE staining (hair follicles, melanin granules)” value (1% and 3% MDI-1228 gel) was “the most significant effects”, the “IL-6 level in serum” value was “the most significant reduction in IL-6 level” and the “TNF-α level in serum” value was “the most significant reduction in TNF-α level”. The “Area under the curve (AUC) of depigmentation scores” value (3% MDI-1228 gel 1.5 g/kg twice daily, vs. model group) was “the greatest reduction in AUC scores” and the “Therapeutic effect in vitiligo mice (conclusion)” value (different concentrations of MDI-1228) was “significant therapeutic effect”.
